{"source": "PubChem BioAssay AID1963842", "about": "(Molecular Pharmacology Branch, DTP, NCI, 2024);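 also: spheroids exposed to compounds for one week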;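 as to viability, T/C: 100% = vehicle DMSO treated spheroids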", "test_system": "677734-321-R-J1-PDC complex spheroid viability", "assay": "Anticancer human tumor 677734-321-R-J1-PDC patient-derived soft tissue sarcoma cell line growth inhibition [POLQ]", "conditions": "for IC50: curve of first compound; for viability, T/C: stronger effect = lower value", "protocol": "Multicellular complex tumor spheroid response to Polymerase (POL) inhibitors (novobiocin, ART-558, RP6685) in combination with a variety of drugs and investigational agents in selected tumor cell lines\nThe POL inhibitors (novobiocin, ART-558, and RP6685) were evaluated both individually and in combination with standard of care and investigational anticancer small molecules within a complex spheroid model of solid tumors. . Complex spheroids include a stromal component modeled by human endothelial cells (HUVEC) and fibroblasts modeled by human mesenchymal stem cells (MSCs). The concentration ranges selected for each drug and investigational agent were based upon clinically achievable concentrations if the clinical Cmax of the agent was known.\nCompounds. The drugs and investigational agents: novobiocin (NSC847541), ART-558 (NSC835418), RP-6685 (NSC848927), peposertib (NSC802822), ceralasertib (NSC780249), elimusertib (NSC800525), camonsertib (NSC841442), AZD-1390 (NSC803789), olaparib (NSC753686), talazoparib (NSC767125), rucaparib (NSC756644), sotorasib (NSC818433), MRTX-1133 (NSC836407), SN-38 (NSC673596), topotecan (NSC609699), epotoside (NSC141540), doxorubicin (NSC123127), gemcitabine (NSC613327), 5-fluorouracil (NSC19893), paclitaxel (NSC125973), vemurafenib (NSC761431), MSA-2 (NSC828583), SN-011 (NSC837082), adavosertib (NSC754352), prexasertib (NSC758257), carboplatin (NSC241240) and oxaliplatin (NSC266046), were obtained from the National Cancer Institute (NCI) Developmental Therapeutics Program Chemical Repository (21). The FDA-approved anticancer drug set is available from the Developmental Therapeutics Program at https://dtp.cancer.gov/organization/dscb/obtaining/. […] The stock solutions were prepared in dimethyl sulfoxide (DMSO, Sigma-Aldrich, St. Louis, MO, cat. D2650), except for the platinum compounds which were prepared in saline (Quality Biological, Gaithersburg, MD, cat. 114-055-101), at 800-fold the tested concentration and stored at -70 degrees C prior to their use. All drugs and investigational agents were tested over a range starting from a high concentration at or near the clinical Cmax and decreasing in half-log increments. If the clinical Cmax for an agent had not been determined, the highest concentration tested was 10 microM, except for SN-38, which was tested at a high concentration of 1 microM.\nCell Culture. All cells were maintained in an incubator at 37 degrees C and 5% CO2 with 95% humidity. The PDC lines were cultured according to standard operating procedures established by the NCI PDMR (https://pdmr.cancer.gov). Table 3 of the manuscript, lists the cell lines along with the number of the three cell types plated to form the mct-spheroids and media for tumor cell growth. After thawing, all PDC lines, except 997537-175-T-J1-PDC and 415267-285-R-J2-PDC, were cultured in Matrigel-coated flasks prepared with a working solution of 1X Ham's F-12 nutrient mix, without supplementation (Thermo Fisher Scientific, cat. 11765054), 100 U/mL penicillin-streptomycin (Thermo Fisher Scientific, cat. 15140122), and 2.5% Matrigel (Corning Inc., Corning, NY, cat. 354248) for the first three passages. The two PDC lines 997537-175-T-J1-PDC and 415267-285-R-J2-PDC were cultured on uncoated flasks. The 857933-349-R-J2-PDC line was cultured in 6C/Colon 1B media containing advanced DMEM/F-12 (Thermo Fisher Scientific, cat. 12634028), 10 mM HEPES (Thermo Fisher Scientific, cat. 15630080), 1X GlutaMAX supplement (Thermo Fisher Scientific, cat. 35050061), 0.1 mg/mL primocin (InvivoGen, San Diego, CA, cat. ant-pm-2), 10% defined fetal bovine serum, heat inactivated (HyClone Laboratories Inc., Logan, UT, cat. SH30070.03HI), 50% L-WRN conditioned media (ATCC, cat. CRL-3276), 1.25 mM N-Acetyl-L-cysteine (Sigma-Aldrich, cat. A9165), 10 mM nicotinamide (Sigma-Aldrich, cat. N0636), 1X B-27 supplement (Thermo Fisher Scientific, cat. 17504044), 1X N-2 supplement (Thermo Fisher Scientific, cat. […]", "data": [{"smiles": "COc1cccc2c1C(=O)c1c(O)c3c(c(O)c1C2=O)CC(O)(C(=O)CO)CC3OC1CC(N)C(O)C(C)O1", "note": "(configuration not stated) + Nc1ccc(C#CCN(C(=O)Cc2ncc(C(F)(F)F)cc2C(F)(F)F)c2ccc(F)cc2)nn1", "values": [{"measurement": "IC50", "setting": "second compound 0.0316 µM", "result": 0.0398, "unit": "µM"}, {"measurement": "IC50", "setting": "second compound 0.1 µM", "result": 0.0467, "unit": "µM"}, {"measurement": "IC50", "setting": "second compound 0.316 µM", "result": 0.0444, "unit": "µM"}, {"measurement": "IC50", "setting": "second compound 1 µM", "result": 0.0785, "unit": "µM"}, {"measurement": "IC50", "setting": "second compound 3.16 µM", "result": 0.0406, "unit": "µM"}, {"measurement": "IC50", "setting": "second compound 10 µM", "result": 0.041, "unit": "µM"}, {"measurement": "viability, T/C", "setting": "second compound 0.0316 µM, first compound 0.0316 µM", "result": 55.1, "unit": "%"}, {"measurement": "viability, T/C", "setting": "second compound 0.0316 µM, first compound 0.1 µM", "result": 29.5, "unit": "%"}, {"measurement": "viability, T/C", "setting": "second compound 0.0316 µM, first compound 0.316 µM", "result": 4.74, "unit": "%"}, {"measurement": "viability, T/C", "setting": "second compound 0.0316 µM, first compound 1 µM", "result": 1.41, "unit": "%"}, {"measurement": "viability, T/C", "setting": "second compound 0.0316 µM, first compound 3.16 µM", "result": 1.65, "unit": "%"}, {"measurement": "viability, T/C", "setting": "second compound 0.0316 µM, first compound 10 µM", "result": 1.2, "unit": "%"}, {"measurement": "viability, T/C", "setting": "second compound 0.1 µM, first compound 0.0316 µM", "result": 61, "unit": "%"}, {"measurement": "viability, T/C", "setting": "second compound 0.1 µM, first compound 0.1 µM", "result": 28.5, "unit": "%"}, {"measurement": "viability, T/C", "setting": "second compound 0.1 µM, first compound 0.316 µM", "result": 4.99, "unit": "%"}, {"measurement": "viability, T/C", "setting": "second compound 0.1 µM, first compound 1 µM", "result": 1.48, "unit": "%"}, {"measurement": "viability, T/C", "setting": "second compound 0.1 µM, first compound 3.16 µM", "result": 1.35, "unit": "%"}, {"measurement": "viability, T/C", "setting": "second compound 0.1 µM, first compound 10 µM", "result": 1.19, "unit": "%"}, {"measurement": "viability, T/C", "setting": "second compound 0.316 µM, first compound 0.0316 µM", "result": 58.5, "unit": "%"}, {"measurement": "viability, T/C", "setting": "second compound 0.316 µM, first compound 0.1 µM", "result": 29.6, "unit": "%"}, {"measurement": "viability, T/C", "setting": "second compound 0.316 µM, first compound 0.316 µM", "result": 6.1, "unit": "%"}, {"measurement": "viability, T/C", "setting": "second compound 0.316 µM, first compound 1 µM", "result": 0.73, "unit": "%"}, {"measurement": "viability, T/C", "setting": "second compound 0.316 µM, first compound 3.16 µM", "result": 2.36, "unit": "%"}, {"measurement": "viability, T/C", "setting": "second compound 0.316 µM, first compound 10 µM", "result": 0.63, "unit": "%"}, {"measurement": "viability, T/C", "setting": "second compound 1 µM, first compound 0.0316 µM", "result": 60, "unit": "%"}, {"measurement": "viability, T/C", "setting": "second compound 1 µM, first compound 0.1 µM", "result": 47.3, "unit": "%"}, {"measurement": "viability, T/C", "setting": "second compound 1 µM, first compound 0.316 µM", "result": 4.86, "unit": "%"}, {"measurement": "viability, T/C", "setting": "second compound 1 µM, first compound 1 µM", "result": 1.7, "unit": "%"}, {"measurement": "viability, T/C", "setting": "second compound 1 µM, first compound 3.16 µM", "result": 1.58, "unit": "%"}, {"measurement": "viability, T/C", "setting": "second compound 1 µM, first compound 10 µM", "result": 0.84, "unit": "%"}, {"measurement": "viability, T/C", "setting": "second compound 3.16 µM, first compound 0.0316 µM", "result": 58.1, "unit": "%"}, {"measurement": "viability, T/C", "setting": "second compound 3.16 µM, first compound 0.1 µM", "result": 21.1, "unit": "%"}, {"measurement": "viability, T/C", "setting": "second compound 3.16 µM, first compound 0.316 µM", "result": 4.68, "unit": "%"}, {"measurement": "viability, T/C", "setting": "second compound 3.16 µM, first compound 1 µM", "result": 0.97, "unit": "%"}, {"measurement": "viability, T/C", "setting": "second compound 3.16 µM, first compound 3.16 µM", "result": 1.23, "unit": "%"}, {"measurement": "viability, T/C", "setting": "second compound 3.16 µM, first compound 10 µM", "result": 0.74, "unit": "%"}, {"measurement": "viability, T/C", "setting": "second compound 10 µM, first compound 0.0316 µM", "result": 57.3, "unit": "%"}, {"measurement": "viability, T/C", "setting": "second compound 10 µM, first compound 0.1 µM", "result": 24.8, "unit": "%"}, {"measurement": "viability, T/C", "setting": "second compound 10 µM, first compound 0.316 µM", "result": 4.54, "unit": "%"}, {"measurement": "viability, T/C", "setting": "second compound 10 µM, first compound 1 µM", "result": 1.86, "unit": "%"}, {"measurement": "viability, T/C", "setting": "second compound 10 µM, first compound 3.16 µM", "result": 2.02, "unit": "%"}, {"measurement": "viability, T/C", "setting": "second compound 10 µM, first compound 10 µM", "result": 0.8, "unit": "%"}]}]}
